{"source": "patent US11427548B2", "about": "(Arvinas Operations, Inc., priority 2015, dated 2022)", "target": "T1, Androgen Receptor (Homo sapiens, UniProt P10275)", "T1 construct": "endogenous in cells; host or cells: VCaP cells", "T1 sequence (P10275 1-920)": "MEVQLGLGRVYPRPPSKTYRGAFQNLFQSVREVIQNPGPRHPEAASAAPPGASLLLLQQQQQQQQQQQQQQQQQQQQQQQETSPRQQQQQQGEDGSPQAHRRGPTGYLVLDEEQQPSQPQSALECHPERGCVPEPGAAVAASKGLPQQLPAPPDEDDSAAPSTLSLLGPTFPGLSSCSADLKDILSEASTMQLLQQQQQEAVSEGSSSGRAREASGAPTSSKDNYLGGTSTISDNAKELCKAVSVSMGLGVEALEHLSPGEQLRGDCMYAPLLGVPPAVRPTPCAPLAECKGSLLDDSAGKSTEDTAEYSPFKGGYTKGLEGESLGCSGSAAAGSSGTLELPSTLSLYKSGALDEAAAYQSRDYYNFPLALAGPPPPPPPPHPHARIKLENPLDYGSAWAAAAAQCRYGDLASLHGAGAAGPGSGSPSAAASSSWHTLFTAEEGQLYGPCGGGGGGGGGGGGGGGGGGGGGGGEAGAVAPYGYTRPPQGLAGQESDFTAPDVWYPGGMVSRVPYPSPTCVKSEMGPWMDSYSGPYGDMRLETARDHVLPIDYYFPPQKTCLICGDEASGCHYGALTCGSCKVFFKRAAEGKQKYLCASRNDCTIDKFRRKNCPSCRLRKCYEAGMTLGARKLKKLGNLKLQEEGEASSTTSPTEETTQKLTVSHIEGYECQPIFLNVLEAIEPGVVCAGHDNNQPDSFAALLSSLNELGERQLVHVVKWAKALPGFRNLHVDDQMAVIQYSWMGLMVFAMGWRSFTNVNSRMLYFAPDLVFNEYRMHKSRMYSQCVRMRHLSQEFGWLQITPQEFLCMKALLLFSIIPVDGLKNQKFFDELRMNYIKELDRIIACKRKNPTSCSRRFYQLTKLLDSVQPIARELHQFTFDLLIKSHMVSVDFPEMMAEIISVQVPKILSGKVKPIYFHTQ", "experiment": "Androgen Receptor ELISA assay (PathScan AR ELISA) in VCaP cells: AR degradation, Dmax and DC50", "format": "cell-based", "summary_of_the_method": "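VCaP cells, 30,000/well, grown ≥3 days in phenol red-free RPMI with 5% charcoal-stripped FBS; compound added in 0.1% DMSO with 0.1 nM R1881, 7 half-log doses, 24 h. Lysate AR quantified by PathScan sandwich ELISA, HRP/TMB read at 450 nm, giving DC50 and Dmax.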", "key": {"[1]": {"conditions": "VCaP cells; Table 36; read-out: VCaP DC50"}, "[2]": {"conditions": "VCaP, VCaP cells; Table 36; read-out: VCaP Dmax (%)"}, "[3]": {"conditions": "VCaP cells; Table 35; read-out: VCaP DC50"}, "[4]": {"conditions": "VCaP, VCaP cells; Table 35; read-out: VCaP Dmax (%)"}, "[5]": {"conditions": "VCaP, read-out: VCaP Dmax (%), VCaP cells; Table 36"}, "[6]": {"conditions": "read-out: VCaP DC50; VCaP cells; Table 35"}}, "note": "Read-outs that look alike come from different tables or passages of the source."}
{"smiles": "Cc1ncsc1-c1ccc([C@H](C)NC(=O)[C@@H]2CCCN2C(=O)[C@@H](NC(=O)CN2CCN(CCCc3ccc(C(=O)N[C@H]4C(C)(C)[C@H](Oc5ccc(C#N)c(C(F)(F)F)c5)C4(C)C)cc3)CC2)C(C)(C)C)cc1", "note": "[Example 724, (S)-1-((S)-2-(2-(4-(3-(4-(((1r,3r)-3-(4-cyano-3-(trifluoromethyl)phenoxy)-2,2,4,4-tetramethylcyclobutyl)carbamoyl)phenyl)propyl)piperazin-1-yl)acetamido)-3,3-dimethylbutanoyl)-N-((S)-1-(4-(4-methylthiazol-5-yl)phenyl)ethyl)pyrrolidine-2-carboxamide]", "values": [{"measurement": "DC50", "setting": "[1]", "result": "> 501", "unit": "nM"}, {"measurement": "Dmax", "setting": "[2]", "result": "< 25", "unit": "%"}]}
{"smiles": "CC(C)(C)[C@H](NC(=O)COCCCCCNc1ccc(C(=O)N[C@H]2C(C)(C)[C@H](Oc3ccc(C#N)c(Cl)c3)C2(C)C)cc1)C(=O)N1C[C@H](O)C[C@H]1C(=O)NCc1ccc(-n2ccnn2)cc1", "note": "[Example 526]", "values": [{"measurement": "DC50", "setting": "[3]", "result": "< 50", "unit": "nM"}, {"measurement": "Dmax", "setting": "[4]", "result": "51 to 70", "unit": "%"}]}
{"smiles": "Cc1ncsc1-c1ccc([C@H](C)NC(=O)C2C[C@@H](O)CN2C(=O)C(NC(=O)CN2CCN(CCCCc3ccc(C(=O)N[C@H]4C(C)(C)[C@H](Oc5ccc(C#N)c(C(F)(F)F)c5)C4(C)C)cc3)CC2)C(C)(C)C)cc1", "note": "(stereo partly drawn) [Example 723, (2S,4R)-1-((S)-2-(2-(4-(4-(4-(((1r,3r)-3-(4-cyano-3-(trifluoromethyl)phenoxy)-2,2,4,4-tetramethylcyclobutyl)carbamoyl)phenyl)butyl)piperazin-1-yl)actamido)-3,3-dimethylbutanoyl)-4-hydroxy-N-((S)-1-(4-(4-methylthiazol-5-yl)phenyl)ethyl)pyrrolidine-2-carboxamide]", "values": [{"measurement": "DC50", "setting": "[1]", "result": "< 50", "unit": "nM"}, {"measurement": "Dmax", "setting": "[2]", "result": "> 71", "unit": "%"}]}
{"smiles": "CC(C)(C)[C@H](NC(=O)CNCCNc1ccc(-c2ccc(C(=O)N[C@H]3C(C)(C)[C@H](Oc4ccc(C#N)c(Cl)c4)C3(C)C)cc2)cn1)C(=O)N1C[C@H](O)C[C@H]1C(=O)NCc1ccc(C#N)cc1", "note": "[Example 500]", "values": [{"measurement": "DC50", "setting": "[3]", "result": "< 50", "unit": "nM"}, {"measurement": "Dmax", "setting": "[4]", "result": "26 to 50", "unit": "%"}]}
{"smiles": "Cc1ncsc1-c1ccc([C@H](C)NC(=O)[C@@H]2C[C@@H](O)CN2C(=O)[C@@H](NC(=O)CCCc2ccc(C(=O)N[C@H]3C(C)(C)[C@H](Oc4ccc(C#N)c(Cl)c4)C3(C)C)cc2)C(C)(C)C)cc1", "note": "[Example 747, (2S,4R)-1-((S)-2-(4-(4-(((1r,3S)-3-(3-chloro-4-cyanophenoxy)-2,2,4,4-tetramethylcyclobutyl)carbamoyl)phenyl)butan-amido)-3,3-dimethylbutanoyl)-4-hydroxy-N-((S)-1-(4-(4-methylthiazol-5-yl)phenyl)ethyl)pyrrolidine-2-carboxamide]", "values": [{"measurement": "DC50", "setting": "[1]", "result": "> 501", "unit": "nM"}, {"measurement": "Dmax", "setting": "[2]", "result": "< 25", "unit": "%"}]}
{"smiles": "CC(C)(C)[C@H](NC(=O)COCCCOCCCCOc1ccc(N2C(=S)N(c3ccc(C#N)c(Br)c3)C(=O)C2(C)C)cc1F)C(=O)N1C[C@H](O)C[C@H]1C(=O)NCc1ccc(-c2cnco2)cc1", "note": "[Example 334]", "values": [{"measurement": "DC50", "setting": "VCaP cells; Table 34; read-out: VCaP DC50", "result": "< 50", "unit": "nM"}, {"measurement": "Dmax", "setting": "VCaP, VCaP cells; Table 34; read-out: VCaP Dmax (%)", "result": "> 71", "unit": "%"}]}
{"smiles": "Cc1ncsc1-c1ccc([C@H](CO)NC(=O)C2C[C@@H](O)CN2C(=O)[C@@H](NC(=O)COCCN2CCCN(c3ccc(C(=O)NC4C(C)(C)C(Oc5ccc(C#N)c(Cl)c5)C4(C)C)cn3)CC2)C(C)(C)C)cc1", "note": "(stereo partly drawn) [Example 822, N-((1r,3r)-3-(3-chloro-4-cyanophenoxy)-2,2,4,4-tetramethylcyclobutyl)-6-(4-(2-(2-(((S)-1-((2S, 4R)-4-hydroxy-2-(((R)-2-hydroxy-1-(4-(4-methylthiazol-5-yl)phenyl)ethyl)carbamoyl)pyrrolidin-1-yl)-3,3-dimethyl-1-oxobutan-2-yl)amino)-2-oxoethoxy)ethyl)-1,4-diazepan-1-yl) nicotinamide]", "values": [{"measurement": "DC50", "setting": "[1]", "result": "< 50", "unit": "nM"}, {"measurement": "Dmax", "setting": "[2]", "result": "> 71", "unit": "%"}]}
{"smiles": "Cc1ncsc1-c1ccc([C@H](C)NC(=O)[C@@H]2C[C@@H](O)CN2C(=O)[C@@H](NC(=O)CN2CCN(CCCc3ccc(C(=O)N[C@H]4C(C)(C)[C@H](Oc5ccc(C#N)c(Cl)c5)C4(C)C)cc3)[C@@H](CO)C2)C(C)(C)C)cc1", "note": "[Example 823, (2S,4R)-1-((S)-2-(2-((R)-4-(3-(4-(((1r,3R)-3-(3-chloro-4-cyanophenoxy)-2,2,4,4-tetramethylcyclobutyl)carbamoyl)phenyl)propyl)-3-(hydroxymethyl)piperazin-1-yl)acetamido)-3,3-dimethylbutanoyl)-4-hydroxy-N-((S)-1-(4-(4-methylthiazol-5-yl)phenyl)ethyl) pyrrolidine-2-carboxamide]", "values": [{"measurement": "DC50", "setting": "[1]", "result": "< 50", "unit": "nM"}, {"measurement": "Dmax", "setting": "VCaP, read-out: VCaP Dmax (%)", "result": "> 71", "unit": "%"}]}
{"smiles": "CC(C)(C)[C@H](NC(=O)COCCCCCNc1ccc(C(=O)N[C@H]2C(C)(C)[C@H](Oc3ccc(C#N)c(Cl)c3)C2(C)C)cc1)C(=O)N1C[C@H](O)C[C@H]1C(=O)NCc1ccc(-c2ccncn2)cc1", "note": "[Example 533]", "values": [{"measurement": "DC50", "setting": "[3]", "result": "< 50", "unit": "nM"}, {"measurement": "Dmax", "setting": "[4]", "result": "26 to 50", "unit": "%"}]}
{"smiles": "Cc1ncsc1-c1ccc([C@H](C)NC(=O)[C@@H]2C[C@@H](O)CN2C(=O)[C@@H](NC(=O)COCCN2CCN(c3ccc(C(=O)N[C@H]4C(C)(C)[C@H](Oc5ccc(C#N)c(Cl)c5)C4(C)C)cc3)CC2)C(C)(C)O)cc1", "note": "[Example 660, (2S,4R)-1-((S)-2-(2-(2-(4-(4-(((1r,3r)-3-(3-chloro-4-cyanophenoxy)-2,2,4,4-tetramethylcyclobutyl)carbamoyl)phenyl)piper-azin-1-yl)ethoxy)acetamido)-3-hydroxy-3-methylbutanoyl)-4-hydroxy-N-((S)-1-(4-(4-methylthiazol-5-yl)phenyl)ethyl)pyrrolidine-2-carboxamide]", "values": [{"measurement": "DC50", "setting": "[1]", "result": "> 501", "unit": "nM"}, {"measurement": "Dmax", "setting": "[5]", "result": "26 to 50", "unit": "%"}]}
{"smiles": "CC(C)(C)c1ccc(CNC(=O)[C@@H]2C[C@@H](O)CN2C(=O)[C@@H](NC(=O)COCCN2CCN(c3ccc(C(=O)N[C@H]4C(C)(C)[C@H](Oc5ccc(C#N)c(Cl)c5)C4(C)C)cn3)CC2)C(C)(C)C)cc1", "note": "[Example 776, 6-(4-(2-(2-(((S)-1-((2S,4R)-2-((4-(tert-butyl)benzyl)carbamoyl)-4-hydroxypyrrolidin-1-yl)-3,3-dimethyl-1-oxobutan-2-yl)amino)-2-oxoethoxy)ethyl)piperazin-1-yl)-N-((1r,3r)-3-(3-chloro-4-cyanophenoxy)-2,2,4,4-tetramethylcyclobutyl) nicotinamide]", "values": [{"measurement": "DC50", "setting": "[1]", "result": "> 501", "unit": "nM"}, {"measurement": "Dmax", "setting": "[2]", "result": "< 25", "unit": "%"}]}
{"smiles": "Cc1ncsc1-c1ccc([C@H](C)NC(=O)[C@@H]2C[C@@H](O)CN2C(=O)[C@@H](NC(=O)CN2CCN(CCC3CCN(c4ccc(C(=O)N[C@H]5C(C)(C)[C@H](Oc6ccc(C#N)c(Cl)c6)C5(C)C)cn4)C3)CC2)C(C)(C)C)cc1", "note": "(stereo partly drawn) [Example 829, N-((1r,3r)-3-(3-chloro-4-cyanophenoxy)-2,2,4,4-tetramethylcyclobutyl)-6-(3-(2-(4-(2-(((S)-1-((2S,4R)-4-hydroxy-2-(((S)-1-(4-(4-methylthiazol-5-yl)phenyl)ethyl)carbamoyl)pyrrolidin-1-yl)-3,3-dimethyl-1-oxobutan-2-yl)amino)-2-oxoethyl)piperazin-1-yl)ethyl)pyrrolidin-1-yl)nicotinamide]", "values": [{"measurement": "DC50", "setting": "[1]", "result": "< 50", "unit": "nM"}, {"measurement": "Dmax", "setting": "VCaP, read-out: VCaP Dmax (%)", "result": "> 71", "unit": "%"}]}
{"smiles": "Cc1ncsc1-c1ccc([C@H](C)NC(=O)[C@@H]2C[C@H](F)CN2C(=O)[C@@H](NC(=O)COCCN2CCN(c3ccc(C(=O)N[C@H]4C(C)(C)[C@H](Oc5ccc(C#N)c(Cl)c5)C4(C)C)cn3)CC2)C(C)(C)C)cc1", "note": "[Example 721, N-((1r,3r)-3-(3-chloro-4-cyanophenoxy)-2,2,4,4-tetramethylcyclobutyl)-6-(4-(2-(2-(((S)-1-((2S,4S)-4-fluoro-2-(((S)-1-(4-(4-methylthiazol-5-yl)phenyl)ethyl)carbam-oyl)pyrrolidin-1-yl)-3,3-dimethyl-1-oxobutan-2-yl)amino)-2-oxoethoxy)ethyl)pipera-zin-1-yl)nicotinamide]", "values": [{"measurement": "DC50", "setting": "[1]", "result": "> 501", "unit": "nM"}, {"measurement": "Dmax", "setting": "[5]", "result": "< 25", "unit": "%"}]}
{"smiles": "Cc1ncsc1-c1ccc(CNC(=O)[C@@H]2C[C@@H](O)CN2C(=O)[C@@H](NC(=O)COCCCCOc2ccc(-c3ccc(N4C(=S)N(c5ccc(C#N)c(C(F)(F)F)c5)C(=O)C4(C)C)cc3)cc2)C(C)(C)C(=O)O)cc1", "note": "[Example 546]", "values": [{"measurement": "DC50", "setting": "[6]", "result": "> 501", "unit": "nM"}]}
{"smiles": "Cc1ncsc1-c1ccc([C@H](C)NC(=O)[C@@H]2C[C@@H](O)CN2C(=O)[C@H](C(C)C)n2cc(Oc3cccc(OCCCCCOc4ccc(N5C(=S)N(c6ccc(C#N)c(C(F)(F)F)c6)C(=O)C5(C)C)cc4)c3)cn2)nc1", "note": "[Example 426]", "values": [{"measurement": "Dmax", "setting": "VCaP, read-out: VCaP Dmax (%)", "result": "< 25", "unit": "%"}, {"measurement": "DC50", "setting": "[6]", "result": "> 501", "unit": "nM"}]}
